According to the supplement of paper PMC10307832:

Assays:
Experiment in all cases: relative viability (nuclei count vs DMSO), 5 days (fraction); higher = more cells survive
[1] = compound: CC1=CN=C(N=C1C2=CNC(=C2)C(=O)N[C@H](CO)C3=CC(=CC=C3)Cl)NC4=C(C=C(C=C4)F)Cl [VX-11e] + CCNC(=O)c1noc(-c2cc(C(C)C)c(O)cc2O)c1-c1ccc(CN2CCOCC2)cc1 [Luminespib] (partner 0.01 µM)
Summary of the method: (§1)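 Relative viability divides the nuclei count in treated wells by that in vehicle wells. Lung cancer cell lines were seeded in 1536-well plates, dosed by pin tool the next day, and fixed and stained after 5 days in one step with final 0.05% Triton X-100, 1% formaldehyde and 1 ug/ml Hoechst. Dosing was a single drug or a fixed anchor-drug dose plus five library-drug doses (not always all listed) in √10 steps, and values are medians of duplicate plates imaged at 4×.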

[2] = compound: CC1=CN=C(N=C1C2=CNC(=C2)C(=O)N[C@H](CO)C3=CC(=CC=C3)Cl)NC4=C(C=C(C=C4)F)Cl [VX-11e] + CC(=O)c1c(C)c2cnc(Nc3ccc(N4CCNCC4)cn3)nc2n(C2CCCC2)c1=O [Palbociclib] (partner 0.5 µM)
Summary of the method: as §1

[3] = compound: CC1=CN=C(N=C1C2=CNC(=C2)C(=O)N[C@H](CO)C3=CC(=CC=C3)Cl)NC4=C(C=C(C=C4)F)Cl [VX-11e] + Cc1nc(Nc2ncc(C(=O)Nc3c(C)cccc3Cl)s2)cc(N2CCN(CCO)CC2)n1 [Dasatinib] (partner 0.075 µM)
Summary of the method: as §1

[4] = compound: CC1=CN=C(N=C1C2=CNC(=C2)C(=O)N[C@H](CO)C3=CC(=CC=C3)Cl)NC4=C(C=C(C=C4)F)Cl [VX-11e] + CC(C)C[C@H](NC(=O)[C@H](Cc1ccccc1)NC(=O)c1cnccn1)B(O)O [Bortezomib] (partner 0.002 µM)
Summary of the method: as §1

Cell Line	relative viability ([1]; first compound 0.4 µM)	relative viability ([1]; first compound 1.265 µM)	relative viability ([1]; first compound 4 µM)	relative viability ([2]; first compound 0.04 µM)	relative viability ([2]; first compound 0.4 µM)	relative viability ([2]; first compound 1.265 µM)	relative viability ([2]; first compound 4 µM)	relative viability ([3]; first compound 0.04 µM)	relative viability ([3]; first compound 0.1265 µM)	relative viability ([3]; first compound 0.4 µM)	relative viability ([3]; first compound 1.265 µM)	relative viability ([3]; first compound 4 µM)	relative viability ([4]; first compound 0.04 µM)	relative viability ([4]; first compound 0.1265 µM)	relative viability ([4]; first compound 0.4 µM)	relative viability ([4]; first compound 1.265 µM)	relative viability ([4]; first compound 4 µM)	relative viability ([1]; first compound 0.04 µM)	relative viability ([1]; first compound 0.1265 µM)	relative viability ([2]; first compound 0.1265 µM)
ABC-1	0.495	0.436	0.518	0.568	0.655	0.548	0.65	0.72	0.551	0.468	0.561	0.497	0.268	0.246	0.262	0.263	0.263	–	–	–
Calu-6	–	–	–	–	–	–	–	–	–	–	–	–	1.08	1.04	1.03	0.333	0.206	–	–	–
NCI-H1563	0.488	0.508	0.465	–	–	–	–	0.417	0.47	0.506	0.411	0.449	0.884	0.734	0.637	0.739	0.747	0.522	0.555	–
LK-2	0.193	0.182	0.183	0.557	0.566	0.399	0.45	0.25	0.344	0.244	0.155	0.257	–	–	–	–	–	0.197	0.198	0.594
EBC-1	–	–	–	–	–	–	–	–	–	–	–	–	0.512	0.528	0.599	0.576	0.239	–	–	–
NCI-H596	0.699	0.755	0.765	–	–	–	–	0.542	0.516	0.466	0.425	0.419	0.953	1	0.989	0.645	0.715	0.898	0.982	–
NCI-H1793	–	0.275	0.15	–	–	0.28	0.232	0.197	0.292	–	0.326	0.287	–	–	–	–	–	0.178	0.177	0.255
SW 900	0.174	0.175	0.173	0.421	–	0.518	0.482	0.59	0.588	0.137	0.585	0.385	–	–	–	–	–	0.211	0.186	0.422
HCC-366	–	–	–	0.385	–	0.314	0.163	0.736	0.612	–	0.434	0.241	0.959	0.895	–	0.864	0.759	–	–	0.311
NCI-H358	0.208	0.464	0.117	0.122	0.0851	0.148	0.118	0.17	0.125	0.0855	0.162	0.103	–	–	–	–	–	–	0.312	0.139
NCI-H1299	–	–	–	–	–	–	–	–	–	–	–	–	0.987	0.978	0.978	1.05	0.556	–	–	–
NCI-H1944	–	0.571	0.422	0.323	0.338	0.264	0.205	0.203	0.207	–	0.2	0.154	–	–	–	–	–	0.711	0.708	0.343
SK-MES-1	0.766	0.406	0.262	0.326	0.355	0.327	0.244	0.403	0.332	0.393	0.188	0.185	–	–	–	–	–	0.838	0.634	0.329
